Source: US8912209B2, “Rock inhibitors” (Amakem NV, priority 2010, dated 2014)

What follows are molecules tested against T1, ROCK II (Homo sapiens, UniProt O75116) (assay: ROCK II kinase inhibition, Method 1 Proqinase setup (33P radioisotopic protein kinase assay)). Details: 33P radioisotopic assay, 1 μM ATP, read-out: IC50 Meth. 1.
T1 construct: purchased Proqinase
T1 sequence (O75116 whole entry): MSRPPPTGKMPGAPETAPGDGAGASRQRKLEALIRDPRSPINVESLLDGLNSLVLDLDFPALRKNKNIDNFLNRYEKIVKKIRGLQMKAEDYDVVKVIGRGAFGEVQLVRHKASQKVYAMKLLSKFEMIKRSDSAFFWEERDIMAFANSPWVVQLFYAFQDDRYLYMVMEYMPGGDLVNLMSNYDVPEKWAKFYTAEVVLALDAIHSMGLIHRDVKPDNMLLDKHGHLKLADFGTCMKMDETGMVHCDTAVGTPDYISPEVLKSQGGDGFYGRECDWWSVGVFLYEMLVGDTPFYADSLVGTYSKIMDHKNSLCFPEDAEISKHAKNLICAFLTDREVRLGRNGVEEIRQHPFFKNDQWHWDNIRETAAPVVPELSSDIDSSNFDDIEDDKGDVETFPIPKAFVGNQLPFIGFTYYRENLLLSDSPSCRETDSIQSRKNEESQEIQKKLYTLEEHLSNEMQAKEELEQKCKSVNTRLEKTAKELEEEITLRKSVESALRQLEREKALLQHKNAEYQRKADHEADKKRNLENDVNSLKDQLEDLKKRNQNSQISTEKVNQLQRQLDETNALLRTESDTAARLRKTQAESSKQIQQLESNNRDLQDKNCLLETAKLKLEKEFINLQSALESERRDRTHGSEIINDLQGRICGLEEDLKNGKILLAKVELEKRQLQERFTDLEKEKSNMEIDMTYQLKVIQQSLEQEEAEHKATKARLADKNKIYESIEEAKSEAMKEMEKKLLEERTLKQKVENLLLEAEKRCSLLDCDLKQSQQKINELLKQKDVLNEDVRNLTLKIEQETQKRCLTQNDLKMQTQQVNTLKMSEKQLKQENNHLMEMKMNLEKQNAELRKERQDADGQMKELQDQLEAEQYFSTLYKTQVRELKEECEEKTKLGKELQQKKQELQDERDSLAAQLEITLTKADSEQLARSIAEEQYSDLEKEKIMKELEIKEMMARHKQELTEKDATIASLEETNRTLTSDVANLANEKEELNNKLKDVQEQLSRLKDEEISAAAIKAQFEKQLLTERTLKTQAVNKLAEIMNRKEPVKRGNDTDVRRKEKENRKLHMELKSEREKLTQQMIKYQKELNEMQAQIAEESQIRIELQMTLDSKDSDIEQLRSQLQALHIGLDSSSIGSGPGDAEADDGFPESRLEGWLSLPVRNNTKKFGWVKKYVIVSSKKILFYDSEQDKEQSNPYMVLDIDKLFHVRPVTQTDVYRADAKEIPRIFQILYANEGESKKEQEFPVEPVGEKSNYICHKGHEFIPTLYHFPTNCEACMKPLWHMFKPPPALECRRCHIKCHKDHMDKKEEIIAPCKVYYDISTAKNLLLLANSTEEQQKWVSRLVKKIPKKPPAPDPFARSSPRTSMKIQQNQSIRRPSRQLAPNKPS
Format: biochemical
Protocol: A ^33P radioisotopic protein kinase assay is used to determine the IC50 for inhibiting ROCK II. A final 50 μl reaction cocktail, containing 60 mM HEPES-NaOH (pH 7.5), 3 mM MgCl2, 3 mM MnCl2, 3 μM Na-orthovanadate, 1.2 mM DTT, 1 μM ATP, 50 μg/ml PEG20.000, 1% (v/v) DMSO, 1 μM ATP (approx. 3×10^5 cpm ^33P-γ-ATP), the substrate (Substrate: S6 peptide—2000 ng/well) and recombinant protein kinase (0.5 nM-2.5 ng/well) is mixed on a shaker and incubated at 30° C. for 80 minutes. The reaction is stopped by the addition of 50 μl of a 2% solution of H3PO4 and mixed on a shaker. After washing twice with 200 μl of a 0.9% solution of NaCl, the dry plate is counted.
Molecule `COC(=O)c1ccc(-c2cc(C(=O)Nc3ccncc3)ccc2CN)cc1` [Compound 2, 2′-Aminomethyl-5′-(pyridin-4-ylcarbamoyl)-biphenyl-4-carboxylic acid methyl ester] has an IC50 of 1000 to 10000 nM. Molecule `CCOC(=O)c1cccc(-c2cc(C(=O)Nc3ccncc3)ccc2CN)c1` [Compound 7, 2′-Aminomethyl-5′-(pyridin-4-ylcarbamoyl)-biphenyl-3-carboxylic acid ethyl ester] has an IC50 of 100 to 1000 nM. `CCCOC(=O)c1cccc(-c2cc(C(=O)Nc3ccncc3)ccc2CN)c1` [Compound 10, 2′-Aminomethyl-5′-(pyridin-4-ylcarbamoyl)-biphenyl-3-carboxylic acid propyl ester] was tested, and the IC50 was 100 to 1000 nM. `CCCCOC(=O)c1cccc(-c2cc(C(=O)Nc3ccncc3)ccc2CN)c1` [Compound 14, 2′-Aminomethyl-5′-(pyridin-4-ylcarbamoyl)-biphenyl-3-carboxylic acid butyl ester] gave an IC50 of 100 to 1000 nM. Work on `CCCCCOC(=O)c1cccc(-c2cc(C(=O)Nc3ccncc3)ccc2CN)c1` [Compound 15, 2′-Aminomethyl-5′-(pyridin-4-ylcarbamoyl)-biphenyl-3-carboxylic acid pentyl ester] yielded an IC50 of 100 to 1000 nM. `CCCCCCOC(=O)c1cccc(-c2cc(C(=O)Nc3ccncc3)ccc2CN)c1` [Compound 17, 2′-Aminomethyl-5′-(pyridin-4-ylcarbamoyl)-biphenyl-3-carboxylic acid hexyl ester] showed an IC50 of 100 to 1000 nM. In the case of `CC(C)OC(=O)c1cccc(-c2cc(C(=O)Nc3ccncc3)ccc2CN)c1` [Compound 26, 2′-Aminomethyl-5′-(pyridin-4-ylcarbamoyl)-biphenyl-3-carboxylic acid isopropyl ester], the IC50 is reported as 100 to 1000 nM. Work on `NCc1ccc(C(=O)Nc2ccncc2)cc1-c1cccc(C(=O)OC2CCC2)c1` [Compound 31, 2′-Aminomethyl-5′-(pyridin-4-ylcarbamoyl)-biphenyl-3-carboxylic acid cyclobutyl ester] yielded an IC50 of 100 to 1000 nM. In the case of `NCc1ccc(C(=O)Nc2ccncc2)cc1-c1cccc(C(=O)OC2CCCC2)c1` [Compound 32, 2′-Aminomethyl-5′-(pyridin-4-ylcarbamoyl)-biphenyl-3-carboxylic acid cyclopentyl ester], the IC50 is reported as 100 to 1000 nM. With `NCc1ccc(C(=O)Nc2ccncc2)cc1-c1cccc(C(=O)OC2CCCCC2)c1` [Compound 35, 2′-Aminomethyl-5′-(pyridin-4-ylcarbamoyl)-biphenyl-3-carboxylic acid cyclohexyl ester] the IC50 was 100 to 1000 nM. Molecule `NCc1ccc(C(=O)Nc2ccncc2)cc1-c1cccc(C(=O)OCC2CCCC2)c1` [Compound 38, 2′-Aminomethyl-5′-(pyridin-4-ylcarbamoyl)-biphenyl-3-carboxylic acid cyclopentylmethyl ester] has an IC50 of 100 to 1000 nM. `NCc1ccc(C(=O)Nc2ccncc2)cc1-c1cccc(C(=O)OCC2CCCCC2)c1` [Compound 39, 2′-Aminomethyl-5′-(pyridin-4-ylcarbamoyl)-biphenyl-3-carboxylic acid cyclohexylmethyl ester] was tested, and the IC50 was 100 to 1000 nM. Work on `COCCOC(=O)c1cccc(-c2cc(C(=O)Nc3ccncc3)ccc2CN)c1` [Compound 41, 2′-Aminomethyl-5′-(pyridin-4-ylcarbamoyl)-biphenyl-3-carboxylic acid 2-methoxy-ethyl ester] yielded an IC50 of 100 to 1000 nM. `NCc1ccc(C(=O)Nc2ccncc2)cc1-c1cccc(C(=O)OC2CCOCC2)c1` [Compound 43, 2′-Aminomethyl-5′-(pyridin-4-ylcarbamoyl)-biphenyl-3-carboxylic acid tetrahydro-pyran-4-yl ester] showed an IC50 of 100 to 1000 nM. In the case of `CN1CCC(OC(=O)c2cccc(-c3cc(C(=O)Nc4ccncc4)ccc3CN)c2)CC1` [Compound 48, 2′-Aminomethyl-5′-(pyridin-4-ylcarbamoyl)-biphenyl-3-carboxylic acid 1-methyl-piperidin-4-yl ester], the IC50 is reported as 100 to 1000 nM. Molecule `NCc1ccc(C(=O)Nc2ccncc2)cc1-c1cccc(C(=O)Oc2ccccc2F)c1` [Compound 53, 2′-Aminomethyl-5′-(pyridin-4-ylcarbamoyl)-biphenyl-3-carboxylic acid 2-fluoro-phenyl ester] has an IC50 of 100 to 1000 nM. `NCc1ccc(C(=O)Nc2ccncc2)cc1-c1cccc(C(=O)OCC2COc3ccccc3O2)c1` (centres unmarked) [Compound 55, 2′-Aminomethyl-5′-(pyridin-4-ylcarbamoyl)-biphenyl-3-carboxylic acid 2,3-dihydro-benzo[1,4]dioxin-2-ylmethyl ester] was tested, and the IC50 was under 100 nM. In the case of `COC(=O)CNC(=O)c1cccc(-c2cc(C(=O)Nc3ccncc3)ccc2CN)c1` [Compound 102, {[2′-Aminomethyl-5′-(pyridin-4-ylcarbamoyl)-biphenyl-3-carbonyl]-amino}-acetic acid methyl ester], the IC50 is reported as under 100 nM. `NCc1ccc(C(=O)Nc2ccncc2)cc1-c1cccc(C(=O)NCC(N)=O)c1` [Compound 106, 6-Aminomethyl-biphenyl-3,3′-dicarboxylic acid 3′-carbamoylmethyl-amide 3-pyridin-4-ylamide] was tested, and the IC50 was under 100 nM. In the case of `NCc1ccc(C(=O)Nc2ccncc2)cc1-c1cccc(C(=O)NCCC2COC(=O)O2)c1` (centres unmarked) [Compound 113, 6-Aminomethyl-biphenyl-3,3′-dicarboxylic acid 3′-{[2-(2-oxo-[1,3]dioxolan-4-yl)-ethyl]-amide} 3-pyridin-4-ylamide], the IC50 is reported as 100 to 1000 nM. In the case of `COC(=O)C1CCCCN1C(=O)c1cccc(-c2cc(C(=O)Nc3ccncc3)ccc2CN)c1` (centres unmarked) [Compound 122, 1-[2′-Aminomethyl-5′-(pyridin-4-ylcarbamoyl)-biphenyl-3-carbonyl]-piperidine-2-carboxylic acid methyl ester], the IC50 is reported as 1000 to 10000 nM. `COC(=O)C1CCN(C(=O)c2cccc(-c3cc(C(=O)Nc4ccncc4)ccc3CN)c2)CC1` [Compound 124, 1-[2′-Aminomethyl-5′-(pyridin-4-ylcarbamoyl)-biphenyl-3-carbonyl]-piperidine-4-carboxylic acid methyl ester] was tested, and the IC50 was 1000 to 10000 nM. In the case of `COC(=O)C1CCN(C(=O)c2cccc(-c3cc(C(=O)Nc4ccncc4)ccc3CN)c2)C1` (centres unmarked) [Compound 127, 1-[2′-Aminomethyl-5′-(pyridin-4-ylcarbamoyl)-biphenyl-3-carbonyl]-pyrrolidine-3-carboxylic acid methyl ester], the IC50 is reported as 1000 to 10000 nM. For `NCc1ccc(C(=O)Nc2ccncc2)cc1-c1cccc(NCCSC2CCOC2=O)c1` (centres unmarked) [Compound 136, 6-Aminomethyl-3′-[2-(2-oxo-tetrahydro-furan-3-ylsulfanyl)-ethylamino]-biphenyl-3-carboxylic acid pyridin-4-ylamide], the IC50 was 100 to 1000 nM. `CCSC(=O)COc1cccc(-c2cc(C(=O)Nc3ccncc3)ccc2CN)c1` [Compound 143, [2′-Aminomethyl-5′-(pyridin-4-ylcarbamoyl)-biphenyl-3-yloxy]-thioacetic acid S-ethyl ester] gave an IC50 of 100 to 1000 nM. For `COC(=O)CNC(=O)COc1cccc(-c2cc(C(=O)Nc3ccncc3)ccc2CN)c1` [Compound 147, {2-[2′-Aminomethyl-5′-(pyridin-4-ylcarbamoyl)-biphenyl-3-yloxy]-acetylamino}-acetic acid methyl ester], the IC50 was under 100 nM. `COC(=O)c1cc2c(-c3cc(C(=O)Nc4ccncc4)ccc3C(C)N)cccc2[nH]1` (centres unmarked) [Compound 171, 4-[2-(1-Amino-ethyl)-5-(pyridin-4-ylcarbamoyl)-phenyl]-1H-indole-2-carboxylic acid methyl ester] showed an IC50 of 100 to 1000 nM. `NCc1ccc(C(=O)Nc2ccncc2F)cc1-c1cccc(C(=O)OCCF)c1` [Compound 178] showed an IC50 of 100 to 1000 nM. With `NCc1ccc(C(=O)Nc2ccncc2F)cc1-c1cccc(C(=O)NC2CCSC2=O)c1` (centres unmarked) [Compound 179] the IC50 was 100 to 1000 nM. `NCc1ccc(C(=O)Nc2ccncc2F)cc1-c1cccc(C(=O)OCc2ccccc2)c1` [Compound 180] gave an IC50 of 100 to 1000 nM. For `NCc1ccc(C(=O)Nc2ccncc2F)cc1-c1cccc(OCC(=O)OCc2ccccc2)c1` [Compound 181], the IC50 was 1000 to 10000 nM. Work on `NCc1ccc(C(=O)Nc2ccncc2F)cc1-c1cccc(CC(=O)OCC23CC4CC(CC(C4)C2)C3)c1` [Compound 182] yielded an IC50 of 100 to 1000 nM. `NCc1ccc(C(=O)Nc2ccncc2F)cc1-c1cccc(C(=O)OCCO)c1` [Compound 183] showed an IC50 of 100 to 1000 nM. `NCc1ccc(C(=O)Nc2ccncc2F)cc1-c1cccc(C(=O)OCC2CCC2)c1` [Compound 184] was tested, and the IC50 was 100 to 1000 nM. With `NCc1ccc(C(=O)Nc2ccncc2F)cc1-c1cccc(C(=O)OCC2CCCC2)c1` [Compound 185] the IC50 was 100 to 1000 nM. Molecule `NCc1ccc(C(=O)Nc2ccncc2F)cc1-c1cccc(C(=O)OCC2CCCO2)c1` (centres unmarked) [Compound 187] has an IC50 of 100 to 1000 nM. `NCc1ccc(C(=O)Nc2ccncc2F)cc1-c1cccc(C(=O)OCCC23CC4CC(CC(C4)C2)C3)c1` [Compound 189] was tested, and the IC50 was 100 to 1000 nM. In the case of `NCc1ccc(C(=O)Nc2ccncc2F)cc1-c1cccc(OCC(=O)OCC2CCCC2)c1` [Compound 191], the IC50 is reported as 100 to 1000 nM. In the case of `NCc1ccc(C(=O)Nc2ccncc2F)cc1-c1cccc(CC(=O)OCCF)c1` [Compound 192], the IC50 is reported as 1000 to 10000 nM. `N#CCCOC(=O)Cc1cccc(-c2cc(C(=O)Nc3ccncc3F)ccc2CN)c1` [Compound 194] showed an IC50 of 1000 to 10000 nM. `NCc1ccc(C(=O)Nc2ccncc2F)cc1-c1cccc(CC(=O)OCCO)c1` [Compound 195] showed an IC50 of 1000 to 10000 nM.
